Entries after “also recorded” stand apart in the source; their conditions may differ.
Columns and labels:
[1] = test system: IL-23 mediated activation of STAT3; assay: HEK-Blue IL-23 reporter cell line STAT3 inducible SEAP reporter assay; format: cell-based, human; settings: cell free culture supernatant (strains grown in TY medium); tofacitinib as inhibitor control
Method: To assess STAT3 suppressive activity, three independent colonies were inoculated and grown until early stationary phase. Then, each seed culture broth was used to inoculate two technical replicates each generating six technical replicates from three biological replicates. The technical replicates were grown until early stationary phase and then cell free culture supernatant was harvested as previously described (Giri et al., 2019). Culture supernatants were size fractionated by passing through a 3 kDa CENTRICON® column according to the manufacturer's (Merck Millipore) instructions.
STAT3 activity was assessed using the HEK Blue IL-23 cell line (Invivogen). Briefly, 50,000 cells per well were seeded in triplicate in a 96-well plate 24 hours prior to the start of the assay. Bacteria supernatant or sterile bacterial medium were mixed at a final concentration of 10%, 25%, or 50% v/v with recombinant human IL-23 (rhIL-23, R&D systems) at a final concentration of 5 ng/mL. This mixture was then added directly to the cells and incubated at 37° C. for 6 hours. […] STAT3 regulated SEAP reporter activity was assessed using Quanti Blue solution as recommended by the manufacturer (Invivogen). […] Cytotoxicity was assessed using MTT assay. […] Cytotoxicity was assessed by measuring absorbance at 540 nm as recommended by the manufacturer (Invitrogen, Thermo Fisher, Australia).

C57BL/6 female mice [2] = assay: Acute murine model of DSS-induced gut barrier dysfunction (3% DSS); format: in vivo, mouse
Method: (§1) M. faecis and F. prausnitzii strains were grown to early stationary phase in TY medium. The cell density of the individual cultures was calculated using a Helber Counting Chamber. To prepare the bacterial gavage solutions, individual cultures were centrifuged under a layer of sterile heavy mineral oil at 5,000 g for 10 minutes and the cell-free supernatant was then discarded. The cell pellets were washed in 1.5 mL of sterile anaerobic buffered diluent (38 mL/L each of salt solutions 2 & 3 (McSweeney et al., 2005), 1 mL/L of 0.1% (w/v) resazurin solution, 1 g/L L-cysteine) and then centrifuged again. Finally, the washed cell pellet was resuspended in half strength glycerol solution (15% v/v glycerol solution in anoxic buffered diluent) to a final concentration of 1×10^9 cells/mL, aliquoted and frozen at −80° C. until required. The viability of the cell preparations was confirmed by thawing a single aliquot and streaking on an agar plate. The identity and purity of the individual strain preparations was confirmed by whole genome sequencing.
(§2) Six-week-old C57BL/6 female mice purchased from Animal Resources Centres (Western Australia, Australia) were randomised and then co-housed for seven days prior to experimentation. To induce gut barrier dysfunction, mice were treated with 3% DSS ad libiteum in the drinking water for six days. Naïve age matched control mice were processed and received DSS free drinking water. All treatments started one day prior to provision of DSS and all mice were sacrificed two days after the final DSS treatment. For the treatments, mice were anesthetised with isofluorane and orally gavaged with 200 μl of bacterial preparations or vehicle control. Prednisone (2 mg/kg) was administered following anesthetisation by intraperitoneal injection. Body weights and stool consistency were recorded daily. Stool samples were collected daily. Following sacrifice, the colon, liver and spleen were collected for analysis. Blood was collected by cardiac puncture. In the therapeutic model, six-week-old C57BL/6 female mice purchased from Animal Resources Centres (Western Australia, Australia) were randomised and then co-housed for seven days prior to experimentation. To induce gut barrier dysfunction, mice were treated with 2.5% DSS ad libiteum in the drinking water for six days. Naïve age matched control mice were processed and received DSS free drinking water. All treatments started two days prior to completion of the DSS treatments and all mice were sacrificed five days after the final DSS treatment. For the treatments, mice were anesthetised with isofluorane and orally gavaged with 200 μl of bacterial preparations or vehicle control. Prednisone (2 mg/kg) was administered following anesthetisation by intraperitoneal injection. […]

C57BL/6 female mice [3] = assay: Therapeutic model of DSS induced murine colitis (2.5% DSS); format: in vivo, mouse; settings: 2.5% DSS therapeutic model
Method: as §1, §2

[4] = test system: mild to moderate flares of ulcerative colitis; settings: cited from earlier work
T84 cells = assay: TEER recovery of barrier integrity after IFNγ (Maestro Pro system); format: cell-based; settings: IFNγ for 72 hours, then treatment; extract relative to YG/V control
Method: The ability of MH23 to promote recovery of barrier integrity was also assessed by using the Maestro Pro system. Briefly, T84 cells were grown in (DMEM/F12) supplemented with 10% heat-inactivated foetal bovine serum and 1% Penicillin-Streptomycin in T75 flasks at 37° C., 5% C02 until approximately 75% confluent. Cells were seeded at a density of 0.1×10^6 cells in a total of 0.2 mL/well in 96-well CytoView-Z plates and incubated at 37° C., 5% C02 in the Maestro Pro system (Axion BioSystems, Atlanta, GA, USA). Media was refreshed every three days. Once stabile TEER measurements had been established (approximately 100 h after seeding), cells were stimulated with recombinant human IFNγ (100 ng/mL; R&D systems, Minneapolis, MN, USA). At 72 h post-stimulation, cells were washed with dPBS (ThermoFisher Scientific, Waltham, MA, USA) and media was replaced with DMEM/F12 only, or DMEM/F12 supplemented with Pyrrolidine dithiocarbamate (PDTC; 50 μM), 1×YG/V media control or 1×MH23-3 bacterial culture supernatant extracts prepared using Amberlite XAD-7 resin as previously outlined. All conditions were analysed as quadruplicates. At 5 h post-treatment, TEER measurements were recorded, and the observed effect of treatment was presented as the percentage difference in TEER value compared to the control (untreated T84 cells). Statistical significance was determined by unpaired t-test.

male BALB/c mice = assay: Acute murine model of TNBS-induced colitis; format: in vivo, mouse
Method: Groups of 5 or 10 male BALB/c mice were used. Mice were fasted overnight (Day 1) before 2,4,6-Trinitrobenzene sulfonic acid solution (TNBS challenge on Day 2. Distal colitis was induced by intracolonic instillation of TNBS (1 mg in 0.1 mL 50% ethanol) after which, animals were kept in a vertical position for 30 seconds to ensure that the solution remained in the colon. For the treatments, mice were orally gavaged with 200 μl of M. faecis MH23-3 at 1×10^9 cells/day or vehicle (sterile glycerol and phosphate salt solution) starting from Day 1 (i.e., 1 day before TNBS) to Day 5 for a total of 5 consecutive days (Days 1-5). The positive control Cyclosporin A was given at 75 mg/kg by oral gavage once daily from Day 1 (i.e., 1 day before TNBS) to Day 4 for a total of 4 consecutive days (Days 1-4). On the Day of TNBS challenge, vehicle, M. faecis MH-23.3 and Cyclosporine A were given at 2 hours before TNBS. Animals were sacrificed on Day 5; blood was collected from all animals by cardiac puncture. The colon tissue was also harvested and snap frozen with liquid nitrogen for cytokine measurement. On Day 5, the mice were euthanized by CO2 asphyxiation. Each colon was removed, rinsed, and then cut from 4 cm from the anus. The tissue sections were fixed in 10% formalin and kept in 70% ethanol for histopathology. […]

[5] = test system: IL-8 secretion in the human gut epithelial HCT116 cell line; assay: IL-8 secretion ELISA in IL-1β treated HCT116 cells (NF-κB activation); format: cell-based; settings: HCT116 cells treated with IL-1β; cell free CS relative to the medium control
Method: For the ELISA assays, 1×10^4 cells/well of HCT116 cells were seeded in duplicate 96 well plates. HCT116 cells were treated with IL-1β (10 ng) and indole-3-carbinol (5 μM) or culture supernatant (10% v/v) as appropriate and incubated at 37° C. for 16 hours. Then, cell supernatants were collected and analysed using an IL-8 human uncoated ELISA Kit according to the manufacturer's instructions.

## C[C@@H]1CCN(C(=O)CC#N)C[C@@H]1N(C)c1ncnc2[nH]ccc12 [tofacitinib]
[1]
  IL-23 mediated STAT3 activation (SEAP reporter activity): prevented; also recorded: inhibits

## C[C@]12C=CC(=O)C=C1CC[C@@H]1[C@@H]2C(=O)C[C@@]2(C)[C@H]1CC[C@]2(O)C(=O)CO [prednisone]
C57BL/6 female mice [2]
  disease pathology / histopathological score: significant improvement
  epithelial injury: ameliorated
  inflammation score: ameliorated
C57BL/6 female mice [2]; daily treatment
  DSS-induced weight loss: exacerbated
C57BL/6 female mice [3]
  epithelial injury: ameliorated
  inflammation score: ameliorated
  pathology / histopathological score: ameliorated
C57BL/6 female mice [3]; relative to the vehicle treatment group
  endoscopic disease activity: significant reduction

## Nc1ccc(O)c(C(=O)O)c1 [Mesalmine]
[4]
  response rates: 40%-70%

## S=C(S)N1CCCC1 [PDTC, Pyrrolidine dithiocarbamate]
T84 cells
  TEER after IFNγ treatment (restoration of barrier integrity): ameliorated

## cyclosporine A
Male BALB/c mice
  TNBS-induced histological damage: ameliorated

## OCc1c[nH]c2ccccc12 [indole-3-carbinol]
[5]
  IL-8 secretion: prevented

From patent US20240226191A1, “COMPOSITIONS AND METHODS FOR TREATING DISEASE” (MICROBA IP PTY LTD, priority 2021, published 2024)
